Like-named read-outs stand apart in the source and are kept apart here.
Tests used:
[1] = target: T1, SARS-CoV-2 M^pro (Severe acute respiratory syndrome coronavirus 2, UniProt P0DTD1); assay: Ellman's assay of free cysteine; type: binding
Protocol: Amount of free cysteine was assayed spectrophotometrically with DTNB [5,5′-dithiobis-(2-nitrobenzoic acid)]according to a previously described method^(22). Briefly, SARS-CoV-2 M^pro (15 μM) was incubated with 0, 2, 5, 20 mol eq. […] Equal volume of DTNB (2 mM) was added to the reaction mix in a total reaction volume of 100 μL. After the incubation for 90 min, absorption of 412 nm which indicated the release of 5-thiobenzoate anion, was detected and converted into thiol concentrations using standard curves prepared with reduced glutathione (GSH) under identical condition. The assay was performed in triplicate and the results were plotted as the [free cysteine]/[M^pro] verse [Bi^3+]/[M^pro].

[2] = target: T2, SARS-CoV-2 PL^pro (Severe acute respiratory syndrome coronavirus 2, UniProt P0DTD1); assay: Zinc release assay (FluoZin-3); type: binding
Protocol: The release of Zn^2+ from SARS-CoV-2 PL^pro upon bismuth drug exposure was perform by a previously described method with zinc-specific fluorophore FluoZin™-3 (Invitrogen/Life Technologies) (21). Briefly, SARS-CoV-2 PLpro (20 μM) was incubated with 0, 2, 5, 20 mol eq. Bi^3+ (as CBS), for 180 min at room temperature, followed by the addition of FluoZin-3 (1 μM) in a total reaction volume of 100 μL (50 mM Tris-HCl, pH7.4) at room temperature. Fluorescence (λex=494 nm, λem=530 nm) was detected and converted into Zn^2+ concentrations using standard curves prepared from […] under identical condition. The signals of CBS at corresponding concentrations after mixing with FluoZin™-3 were recorded for background subtraction. The assay was performed in triplicate and the results were plotted as the [Zn^2+]/[PL^pro] verse [Bi^3+]/[PL^pro].

[3] = target: T1, SARS-CoV-2 M^pro; assay: Bi^3+ binding to M^pro (UV-vis kinetics and titration)
[4] = target: T2, SARS-CoV-2 PL^pro; assay: Bi^3+ binding to PL^pro (UV-vis kinetics and titration)
[5] = Chemical stability of bismuth drugs at different pH; conditions: data not shown; for effect of the thiol-containing drug on hydrolysis of CBS: acidic conditions
[6] = test system: SARS-CoV-2; type: cell-based; conditions: 24 h, 1000 µM
[7] = test system: SARS-CoV-2; assay: Golden Syrian hamster model, oral treatment (NAC studies); type: in vivo
[8] = test system: SARS-CoV-2; assay: Viral load reduction assay in VeroE6 cells; type: cell-based
Protocol: Viral load reduction assay was performed on VeroE6 and Caco2 cells, as described previously with modifications^41. Supernatant samples from the infected cells (0.1 MOI) were harvested at 48 hours post-infection (hpi) for qRT-PCR analysis of virus replication. Briefly, 100 μL of viral supernatant were lyzed with 400 μL of AVL buffer and then extracted for total RNA with the QIAamp viral RNA mini kit (Qiagen, Hilden, Germany). Real-time one-step qRT-PCR was used for quantitation of SARS-CoV-2 viral load using the QuantiNova Probe RT-PCR kit (Qiagen) with a LightCycler 480 Real-Time PCR System (Roche) as previously described^15. Each […] mixture contained 10 μL of 2×QuantiNova Probe RT-PCR Master Mix, 1.2 μL of RNase-free water, 0.2 μL of QuantiNova Probe RT-Mix, 1.6 μL each of 10 μM forward and reverse primer, 0.4 μL of 10 μM probe, and 5 μL of extracted RNA as the template. Reactions were incubated at 45° C. for 10 min for reverse transcription, 95° C. for 5 min for denaturation, followed by 45 cycles of 95° C. for 5 s and 55° C. for 30 s. Signal detection and measurement were taken in each cycle after the annealing step. The cycling profile ended with a cooling step at 40° C. for 30 s. The primers and probe sequences are against the RNA-dependent RNA polymerase/Helicase (RdRP/Hel) gene region of SARS-Cov-2 previously described^42.
Cell culture supernatants were collected at 48 hour-post-infection (hpi) for viral RNA extraction and quantitative reverse transcription-polymerase chain reaction (qRT-PCR) as previously described with modifications(13, 14). The primers and probe sequences were against the RNA-dependent RNA polymerase/Helicase (RdRP/Hel) gene region of SARS-CoV-2: forward primer: 5′-[…]-3′ (SEQ ID NO:6); reverse primer: 5′-[…]-3′(SEQ ID NO:7); specific probe: 5′-[…]-IABkFQ-3′(SEQ ID NO:8). The viral load reduction assay experiments were performed in triplicate and repeated twice for confirmation.

[9] = target: T2, SARS-CoV-2 PL^pro; assay: PL^pro activity inhibition assay (FRET); type: biochemical
[10] = target: T1, SARS-CoV-2 M^pro; assay: biochemical; type: biochemical
[11] = test system: VeroE6 cells; assay: Cell viability assay (CellTiterGlo), VeroE6; type: cell-based, African green monkey
Protocol: (§1) The CellTiterGlo® luminescent assay (Promega Corporation, Madison, Wis., USA) was performed to detect the cytotoxicity of the selected compounds as previously described^39. Briefly, VeroE6 cells (4×10^4 cells per well) and Caco2 cells (4×10^4 cells per well) were incubated with different concentrations of the individual compound in 96-well plates for 48 hrs, followed by the addition of the substrate and measurement of luminance 10 min later. Ridaura and Au(PEt3)Cl were dissolved in DMSO, and the final percentage of DMSO was kept at 1% in culture medium.

[12] = test system: SARS-CoV-2; type: cell-based
[13] = test system: pseudo-SARS-CoV-2-Luc; type: cell-based
[14] = test system: SARS-CoV-2; type: cell-based; conditions: read-out: EC50 VeroE6
[15] = test system: SARS-CoV-2; conditions: 0.1 MOI, 48 hpi, non-toxic concentrations
[16] = test system: Caco2 cells; assay: Cell viability assay (CellTiterGlo), Caco2; type: cell-based, human; conditions: Caco-2
Protocol: as §1

[17] = 48 hrs incubation, concentration based on metal content, read-out: CC50 VeroE6
[18] = 0.1 MOI, 48 hpi, non-toxic concentrations

Compound: [Bi+3] [Bi^3+]
- decrease of free cysteine in M^pro [1]: ~1 eq.
- Zn^2+ released from PL^pro [2]: ~0.78 eq.
- molar ratio [Bi3+]/[SARS-CoV-2 Mpro] at plateau ([3]; absorption at 340 nm): ~1
- Kd ([3]; read-out: estimated dissociation constant (Kd), M^pro): 600 nM
- molar ratio [Bi3+]/[SARS-CoV-2 PL^pro] at plateau ([4]; absorption at 340 nm): ~3
- Kd ([4]; read-out: estimated dissociation constant (Kd), PL^pro): 1130 nM

Compound: CC(C)(S)[C@@H](N)C(=O)O [PCM, penicillamine]
- effect of the thiol-containing drug on hydrolysis of CBS [5]: prevent hydrolysis of CBS

Compound: CC(=O)N[C@@H](CS)C(=O)O [NAC, N-acetyl cysteine]
- viral NP antigen-positive cells [6]: 59.75%
- lung pathology ([7]; H&E): partially relieved lung pathology
- pulmonary viral load compared with vehicle group ([7]; oral CBS 300 mg/kg or NAC 370 mg/kg, 2 dpi): No statistically significant difference
- anti-SARS-CoV-2 activity in Vero E6 culture supernatant ([8]; up to 2000 μM): negligible anti-SARS-CoV-2 activity
- IC50 [9]: > 150 µM
- inhibition of PL^pro at comparable concentrations [9]: negligible inhibitory
- IC50 [10]: > 450 µM
- inhibition of M^pro at comparable concentrations [10]: negligible inhibitory

Compound: CC[PH](CC)(CC)[Au][S][C@@H]1O[C@H](COC(C)=O)[C@@H](OC(C)=O)[C@H](OC(C)=O)[C@H]1OC(C)=O [Ridaura, Auranofin]
- CC50 [11, 17]: 14.2 ± 1.3 µM

Compound: Bi(TPyP) (TPyP: tetra(4-pyridyl)porphyrin)
- effect on virus replication, drug added during pre-incubation (cells pre-treatment) [12]: significantly suppressed virus replication
- effect on virus replication, drug added during virus co-infection [12]: significantly suppressed virus replication
- effect on virus replication, drug maintained after virus entry (post-entry) [12]: no detectable effect
- maximal viral load reduction in VeroE6 cell culture supernatant [8]: ~3 logs
- maximal viral load reduction in the VeroE6 cell lysate [8]: ~1 logs
- percent virus entry lowered [13]: ~53%
- EC50 [14]: 7.5 µM

Compound: bismuth subgallate [BSG]
- stabilisation of the bismuth drug by NAC ([5]; low pH): stabilized

Compound: Bi(TPP) (TPP: tetraphenylporphyrinate)
- effect on virus replication, drug maintained after virus entry (post-entry) ([12]; MOI=2, viral titer at 9 hpi): functioned at post-entry stages
- maximal viral load reduction in VeroE6 cell culture supernatant [8, 18]: ~3 logs
- maximal viral load reduction in the VeroE6 cell lysate [8, 18]: ~1 logs
- maximal viral load reduction in Caco2 cell culture supernatant [15]: ~3 logs
- maximal viral load reduction in the Caco2 cell lysate [15]: ~2 logs
- EC50 ([14]; SARS-CoV-2 plaque reduction, concentration based on metal content): 3.9 ± 1.2 µM
- CC50 [16]: > 400 µM
- CC50 [11]: > 400 µM

Compound: C[C@H](CS)C(=O)N1CCC[C@H]1C(=O)O [CPL, captopril]
- effect of the thiol-containing drug on hydrolysis of CBS [5]: prevent hydrolysis of CBS

Compound: N[C@@H](CCC(=O)N[C@@H](CS)C(=O)NCC(=O)O)C(=O)O [GSH, glutathione]
- effect of the thiol-containing drug on hydrolysis of CBS [5]: prevent hydrolysis of CBS

Compound: CCP(CC)CC.[Au+].[Cl-] [Au(PEt3)Cl, chloro(triethylphosphine)gold(I)]
- CC50 [11, 17]: 13.5 ± 1.8 µM

Compound: O=C(O)c1ccccc1S [TSA, thiosalicylic acid]
- effect of the thiol-containing drug on hydrolysis of CBS [5]: prevent hydrolysis of CBS

From patent US20230218663A1, “COMPOSITIONS AND METHODS FOR TREATING A SARS-COV-2 INFECTION” (priority 2020, published 2023)
